The structures appear in SMILES notation.

The melting point is the temperature of the solid-liquid transition.

For the first series, the system named is soluble guanylate cyclase. Kind of series: Stimulation of soluble guanylate cyclase in primary endothelial cells (intracellular cGMP). It counts as cell-based. As to conditions: primary rabbit aortic endothelial cells, test substance final concentration 1 μM, 10 min incubation, with or without NO donor (SNP 1 μM). As to the method: (§1) To determine the cardiovascular actions, the following investigations were carried out: in in vitro investigations on cells of vascular origin, the influx on guanylate cyclase-dependent cGMP formation was tested with and without NO donor. The anti-aggregatory properties were shown on human platelets stimulated with collagen. The vasorelaxant action was determined in rabbit aortal rings precontracted with phenylephrine. The hypotentive action was investigated in anaesthetized rats.
Primary endothelial cells were isolated from rabbit aortas by treatment with collagenase soln. The cells were then cultured in culture medium at 37° C./5% CO2 until confluence was reached. For the investigations, the cells were passaged, inoculated into 24-hole cell culture plates and subcultured until reaching confluence (˜2×10^5 cells/hollow). For the stimulation of endothelial guanylate cyclase, the culture medium was aspirated and the cells were washed once with Ringer solution. After removing the Ringer solution, the cells were incubated for 10 minutes at 37° C./5% CO2 in stimulation buffer with or without NO donor (sodium nitroprusside, SNP, 1 μM). […] The supernatants containing the intracellular cGMP were then removed and the cGMP concentration was determined by means of the cGMP-SPA system (Amersham Buchler, Brunswick).
Regarding `O=Cc1ccc(-c2nn(Cc3ccccc3F)c3nc(O)ccc23)o1` [Example 32], the “cGMP increase (%)” value was 135%.

Tested on in the next series: not given
Test: not given
Conditions: not given
`[O-][S+](NCc1cccc2ccccc12)c1ccc(-c2nn(Cc3ccccc3F)c3ncccc23)o1` (centres unmarked) [Example 63] registered a melting point of 158 °C. With `Nc1ncnc2c1c(-c1ccc(CO)o1)nn2Cc1ccccc1` [Example 35], the melting point is 213 °C. With `Cc1coc(-c2nn(Cc3ccccc3F)c3ncccc23)n1` [Example 67], the melting point stood at 106 °C.

Consider `OCc1ccc(-c2nn(Cc3ccccc3)c3ncncc23)o1` [Example 34], for which the melting point turned out to be 165 °C. Regarding `Nc1nc(N)c2c(-c3ccc(CO)o3)nn(Cc3ccccc3F)c2n1` [Example 38], the melting point worked out at 205 °C. As for `Cc1cc(C)c2c(-c3ccc(CO)o3)nn(Cc3ccccc3)c2n1` [Example 43], the melting point stood at 155 °C.

With `CN1CCC([S+]([O-])c2ccc(-c3nn(Cc4ccccc4F)c4ncccc34)o2)CC1` (centres unmarked) [Example 52], the melting point stood at 279 °C. The same measure, in the same setting: the figure for `CCCCCCCCN[S+]([O-])c1ccc(-c2nn(Cc3ccccc3F)c3ncccc23)o1` (centres unmarked) [Example 53] is 69 °C; for `[O-][S+](NC1CC1)c1ccc(-c2nn(Cc3ccccc3F)c3ncccc23)o1` (centres unmarked) [Example 57] it is 138 °C. `CC(C)NS(=O)(=O)c1ccc(-c2nn(Cc3ccccc3F)c3ncccc23)o1` [Example 61] yielded a melting point of 109 °C. The same measure, in the same setting: as for `[O-][S+](c1ccc(-c2nn(Cc3ccccc3F)c3ncccc23)o1)N1CCOCC1` (centres unmarked) [Example 54], the figure is 122 °C; as for `Nc1nc(-c2ccccc2)nc2c1c(-c1ccc(CO)o1)nn2Cc1ccccc1F` [Example 39], 225 °C; as for `Cc1nc(-c2nn(Cc3ccccc3F)c3ncccc23)oc1CO` [Example 68], 145 °C. On to `CC(C)N[S+]([O-])c1ccc(-c2nn(Cc3ccccc3F)c3ncccc23)o1` (centres unmarked) [Example 56], for which the melting point came out at 136 °C. `[O-][S+](Nc1cccc(Cl)c1)c1ccc(-c2nn(Cc3ccccc3F)c3ncccc23)o1` (centres unmarked) [Example 66] gave a melting point of 110 °C.

In turn, `[O-][S+](NC1CCCCCC1)c1ccc(-c2nn(Cc3ccccc3F)c3ncccc23)o1` (centres unmarked) [Example 60] came in with a melting point of 161 °C. The compound `CN(C)[S+]([O-])c1ccc(-c2nn(Cc3ccccc3F)c3ncccc23)o1` (centres unmarked) [Example 50] gave a melting point of 107 °C. Turning to `CC(N[S+]([O-])c1ccc(-c2nn(Cc3ccccc3F)c3ncccc23)o1)c1ccccc1` (centres unmarked) [Example 64], the melting point was found to be 132 °C. Still for that read-out and setting: as for `O=CNc1nc(-c2ccccc2)nc2c1c(-c1ccc(CO)o1)nn2Cc1ccccc1F` [Example 40], the figure is 189 °C; as for `CC(C)CN[S+]([O-])c1ccc(-c2nn(Cc3ccccc3F)c3ncccc23)o1` (centres unmarked) [Example 58], 109 °C; as for `COCCOc1cnc2c(c1)c(-c1ccc(CO)o1)nn2Cc1ccccc1F` [Example 42], 106 °C. On to `CCCCCCN[S+]([O-])c1ccc(-c2nn(Cc3ccccc3F)c3ncccc23)o1` (centres unmarked) [Example 59], for which the melting point is 114 °C. In the case of `Nc1ncnc2c1c(-c1ccc(CO)o1)nn2Cc1ccccc1F` [Example 36], the melting point stood at 207 °C.

On to `Cc1nc2c(c(-c3ccc(CO)o3)nn2Cc2ccccc2)c(C)c1C` [Example 44], for which the melting point is 180 °C. Same read-out and setting: as for `CN(C)c1ncnc2c1c(-c1ccc(CO)o1)nn2Cc1ccccc1F` [Example 37], the figure is 94 °C; as for `[O-][S+](c1ccc(-c2nn(Cc3ccccc3F)c3ncccc23)o1)N1CCCC1` (centres unmarked) [Example 65], 107 °C. On the same count and under the same terms, the figure for `[O-][S+](NCc1ccccc1)c1ccc(-c2nn(Cc3ccccc3F)c3ncccc23)o1` (centres unmarked) [Example 51] is 126 °C.

Another series relates to anaesthetized rats. Kind of series: Blood pressure measurements in anaesthetized rats. It counts as in vivo, rat. The settings on record: male Wistar rats, oral, dose 10 mg/kg. As to the method: as §1
Male Wistar rats having a body weight of 300-350 g are anaesthetized with thiopental (100 mg/kg i.p.) After tracheotomy, a catheter is inserted in the femoral artery for blood pressure measurement. The substances to be tested are administered orally in various doses by means of stomach tube as a suspension in Tylose solution.
Turning to `OCc1ccc(-c2nn(Cc3ccccc3)c3ncccc23)o1` [Example 13, 1-Benzyl-3-(5-hydroxymethyl-2-furyl)-1-H-pyrazolo[3,4-b]pyridine], the “Max blood pressure fall” value is recorded as −13 mm Hg and the “Time (of max blood pressure fall)” value was found to be 60 min.

Still in this series, the particulars now being: male Wistar rats, oral, dose 30 mg/kg.
Regarding `OCc1ccc(-c2nn(Cc3ccccc3)c3ncccc23)o1` [Example 13, 1-Benzyl-3-(5-hydroxymethyl-2-furyl)-1-H-pyrazolo[3,4-b]pyridine], the “Max blood pressure fall” value is −23 mm Hg and the “Time (of max blood pressure fall)” value came out at 60 min.
